In US20010011081A1, “Pharmaceutical composition comprising L- carnitine or alkanoyl L-carnitine for the prevention and treatment of diseases brought about by lipid metabolism disorders” (Sigma-Tau Industrie Parmaceutiche Riunite S.p.A., priority 1995, published 2001):
Entries after “also recorded” stand apart in the source; their conditions may differ.

Legend:
[1] = test system: fructose-induced hypertriglyceridaemia; assay: Experimental hypertriglyceridaemia test (oral fructose); format: in vivo, Wistar rats; details: for EXPERIMENTALLY-INDUCED HYPERTRIGYCERIDAEMIA (serum triglycerides): 5 days before and two hours after 3 g fructose
Method: In these tests, male Wistar rats serum triglyceride elevation was induced experimentally by means of the oral administration of fructose according to the method disclosed by L. A. V. Carlson (J. Atheroscler. Res. 8, 667, 1968; Atherosclerosis 16, 349, 1972). In the 5-day period prior to administration of 3 g of fructose, the rats, divided into groups, were treated with L-carnitine or its derivatives or with calcium hydroxycitrate or Garcinia cambogia extract at different doses, or with various combinations of these products.
The administration of these products was then repeated two hours after administration of fructose, and 5 hours later all animals were sacrificed. Triglyceride assay was then performed according to the method of R. K. Donabedian (Clin. Chem 20, 632, 1974).

[2] = test system: experimentally obese rats; assay: Tests in experimentally obese rats on a lipogenic diet for fifteen days (food consumption, body weight, serum triglycerides, epididymal fat); format: in vivo, Wistar rats; details: for MEAN DAILY FOOD CONSUMPTION (g) PER ANIMAL After 15 days / MEAN DAILY FOOD CONSUMPTION (g) PER ANIMAL Before treatment / Final body weight increase (g) AFTER 15 DAY-TREATMENT / SERUM Triglycerides AFTER 15 DAY-TREATMENT / Epididimal fat AFTER 15 DAY-TREATMENT: lipogenic diet
Method: Male Wistar rats aged about 2 months were fed on a lipogenic diet (50% glucose, 20% casein, 4% cellulose, 5% salt mixture, 1% hazel nut oil, 18% starch, 1% vitamin mixture).
This diet was administered for fifteen days consecutively to different groups of rats, one of which served as a control group, whereas in the other groups the diet was administered together with calcium hydroxycitrate (1%-2%) or Garcinia cambogia extract (2%-4%) or L-carnitine (2%-4%) or acetyl L-carnitine or propionyl L-carnitine at the same doses, or together with various combinations of these products at the same doses. At the end of the fifteenth day of treatment, food consumption was evaluated in treated rats vs. controls and increases in body weight and in serum triglycerides and epididymal fat were measured.

[3] = test system: Wistar rats with hypercholesterolaemia induced by diet; assay: Experimental hypercholesterolaemia test (diet-induced, six weeks); format: in vivo; details: serum
Method: The results of tests conducted in Wistar rats with hypercholesterolaemia induced by diet according to the method described by C. […] Treatment both with L-carnitine and with calcium hydroxycitrate or with Garcinia cambogia extract, or with a combination of these products, was initiated together with a hypercholesterolaemia-inducing diet and continued for six weeks consecutively. At the end of this period, the assay was performed on the serum of the control animals and on that of the treated animals according to the method described by P. Roschlan (Clin. Chem. Clin. Biochem. 12, 403, 1975).

[4] = test system: atherosclerotic vascular lesions; assay: Experimental atherosclerosis test (atherogenic diet for six weeks); format: in vivo, Wistar rats
Text: Also in atherosclerotic vascular lesions induced experimenatlly according to the method of M. R. Malinow (Atherosclerosis 48, 105, 1983), with administration of an atherogenic diet (24% casein, 10% cotton oil, 5% salt, 60% sugar, 1% cholesterol, Vit D2 200 mUST/g of diet) for six weeks consecutively to different groups of male Wistar rats, it has been shown that the combination of carnitines plus calcium hydroxycitrate or Garcinia cambogia extract is capable of substantially potentiating the anti-atherogenic effect.
This was assessed by measuring the thickness of the abdominal aorta and the intensity of staining induced by Sudan IV using a scoring system from 1 to 5, according to degree of severity.

[5] = fifteen days of treatment on a lipogenic diet
[6] = g 1/100 g diet, listed as calcium hydroxycitrate
[7] = g 2/100 g diet, listed as calcium hydroxycitrate

Q: For `CC(=O)O[C@H](CC(=O)[O-])C[N+](C)(C)C` [Acetyl L-carnitine], which “EXPERIMENTALLY-INDUCED HYPERTRIGYCERIDAEMIA (serum triglycerides)” value ([1]; g 0.5/Kg) is on record?
A: 191.2 ± 9.1 mg/100 ml

Q: What about the “EXPERIMENTALLY-INDUCED HYPERTRIGYCERIDAEMIA (serum triglycerides)” value ([1]; g 1/Kg) of the same compound?
A: 188.4 ± 5.5 mg/100 ml

Q: And the “MEAN DAILY FOOD CONSUMPTION (g) PER ANIMAL After 15 days” value ([2]; g 2/100 g diet)?
A: 18.4 ± 0.44 g

Q: And the “MEAN DAILY FOOD CONSUMPTION (g) PER ANIMAL After 15 days” value ([2]; g 4/100 g diet)?
A: 18.8 ± 0.57 g

Q: And the “MEAN DAILY FOOD CONSUMPTION (g) PER ANIMAL Before treatment” value ([2]; g 2/100 g diet)?
A: 18.6 ± 0.39 g

Q: What about the “MEAN DAILY FOOD CONSUMPTION (g) PER ANIMAL Before treatment” value ([2]; g 4/100 g diet) of the same compound?
A: 18.2 ± 0.41 g

Q: And the “change in daily food consumption (in words)” value [2, 5]?
A: No changes compared to controls; also recorded: non-significant changes

Q: And the “Final body weight increase (g) AFTER 15 DAY-TREATMENT” value (from here on “Final body weight increase”) ([2]; g 2/100 g diet)?
A: 60.4 ± 7.1 g

Q: And the “SERUM Triglycerides AFTER 15 DAY-TREATMENT” value ([2]; g 2/100 g diet)?
A: 95.81 ± 8.2 mg/100 ml

Q: And the “Final body weight increase” value ([2]; g 4/100 g diet)?
A: 60.1 ± 6.1 g

Q: And the “SERUM Triglycerides AFTER 15 DAY-TREATMENT” value ([2]; g 4/100 g diet)?
A: 90.8 ± 7.5 mg/100 ml

Q: What about the “EXPERIMENTALLY-INDUCED HYPERCHOLESTEROLEMIA, TOTAL CHOLESTEROL” value ([3]; g 2/100 g diet) of the same compound?
A: 266.7 ± 7.7 mg/dL

Q: What about the “EXPERIMENTALLY-INDUCED HYPERCHOLESTEROLEMIA, TOTAL CHOLESTEROL” value ([3]; g 4/100 g diet) of the same compound?
A: 255.4 ± 9.4 mg/dL

Q: Which “EXPERIMENTALLY-INDUCED HYPERTRIGYCERIDAEMIA (serum triglycerides)” value ([1]; g 0.5/Kg) does the source give for `C[N+](C)(C)C[C@H](O)CC(=O)[O-]` [L-carnitine] here?
A: 190.4 ± 9.6 mg/100 ml

Q: And the “EXPERIMENTALLY-INDUCED HYPERTRIGYCERIDAEMIA (serum triglycerides)” value ([1]; g 1/Kg)?
A: 190.8 ± 8.6 mg/100 ml

Q: And the “severity of atherosclerotic lesions / anti-atherogenic effect (abdominal aorta thickness, Sudan IV staining score 1 to 5)” value [4]?
A: capable of reducing the severity of the atherosclerotic lesions

Q: And the “MEAN DAILY FOOD CONSUMPTION (g) PER ANIMAL After 15 days” value ([2]; g 4/100 g diet)?
A: 17.8 ± 0.41 g

Q: What about the “MEAN DAILY FOOD CONSUMPTION (g) PER ANIMAL Before treatment” value ([2]; g 2/100 g diet) of the same compound?
A: 17.3 ± 0.35 g

Q: What about the “MEAN DAILY FOOD CONSUMPTION (g) PER ANIMAL Before treatment” value ([2]; g 4/100 g diet) of the same compound?
A: 18.4 ± 0.61 g

Q: And the “change in daily food consumption (in words)” value [2, 5]?
A: No changes compared to controls; also recorded: non-significant changes

Q: What about the “Final body weight increase” value ([2]; g 2/100 g diet) of the same compound?
A: 66.2 ± 4.9 g

Q: And the “SERUM Triglycerides AFTER 15 DAY-TREATMENT” value ([2]; g 2/100 g diet)?
A: 92.55 ± 7.7 mg/100 ml

Q: What about the “Final body weight increase” value ([2]; g 4/100 g diet) of the same compound?
A: 64.5 ± 5.1 g

Q: What about the “SERUM Triglycerides AFTER 15 DAY-TREATMENT” value ([2]; g 4/100 g diet) of the same compound?
A: 90.44 ± 6.8 mg/100 ml

Q: What about the “EXPERIMENTALLY-INDUCED HYPERCHOLESTEROLEMIA, TOTAL CHOLESTEROL” value ([3]; g 2/100 g diet) of the same compound?
A: 270.4 ± 5.1 mg/dL

Q: And the “EXPERIMENTALLY-INDUCED HYPERCHOLESTEROLEMIA, TOTAL CHOLESTEROL” value ([3]; g 4/100 g diet)?
A: 260.6 ± 4.4 mg/dL

Q: What does the source list for `CCC(=O)O[C@H](CC(=O)[O-])C[N+](C)(C)C` [Propionyl L-carnitine]?
A: EXPERIMENTALLY-INDUCED HYPERTRIGYCERIDAEMIA (serum triglycerides) ([1]; g 0.5/Kg): 184.2 ± 6.8 mg/100 ml; EXPERIMENTALLY-INDUCED HYPERTRIGYCERIDAEMIA (serum triglycerides) ([1]; g 1/Kg): 180.4 ± 7.9 mg/100 ml; MEAN DAILY FOOD CONSUMPTION (g) PER ANIMAL After 15 days ([2]; g 2/100 g diet): 17.1 ± 0.38 g; MEAN DAILY FOOD CONSUMPTION (g) PER ANIMAL After 15 days ([2]; g 4/100 g diet): 18.5 ± 0.48 g; MEAN DAILY FOOD CONSUMPTION (g) PER ANIMAL Before treatment ([2]; g 2/100 g diet): 17.7 ± 0.56 g; MEAN DAILY FOOD CONSUMPTION (g) PER ANIMAL Before treatment ([2]; g 4/100 g diet): 18.2 ± 0.44 g; change in daily food consumption (in words) [2, 5]: No changes compared to controls; also recorded: non-significant changes; Final body weight increase (g) AFTER 15 DAY-TREATMENT ([2]; g 2/100 g diet): 62.4 ± 3.9 g; SERUM Triglycerides AFTER 15 DAY-TREATMENT ([2]; g 2/100 g diet): 88.4 ± 8.16 mg/100 ml; Epididimal fat AFTER 15 DAY-TREATMENT ([2]; g 4/100 g diet): 4.0 ± 5.6 g; Final body weight increase (g) AFTER 15 DAY-TREATMENT ([2]; g 4/100 g diet): 58.7 ± 3.7 g; SERUM Triglycerides AFTER 15 DAY-TREATMENT ([2]; g 4/100 g diet): 82.7 ± 6.6 mg/100 ml; EXPERIMENTALLY-INDUCED HYPERCHOLESTEROLEMIA, TOTAL CHOLESTEROL ([3]; g 2/100 g diet): 250.6 ± 10.1 mg/dL; EXPERIMENTALLY-INDUCED HYPERCHOLESTEROLEMIA, TOTAL CHOLESTEROL ([3]; g 4/100 g diet): 235.3 ± 9.6 mg/dL

Q: What does the source list for Calcium hydroxycitrate?
A: EXPERIMENTALLY-INDUCED HYPERTRIGYCERIDAEMIA (serum triglycerides) ([1]; g 0.5/Kg): 170.6 ± 8.5 mg/100 ml; EXPERIMENTALLY-INDUCED HYPERTRIGYCERIDAEMIA (serum triglycerides) ([1]; g 1/Kg): 145.5 ± 8.5 mg/100 ml; fructose-induced hypertriglyceridaemia (in words) ([1]; rat, in vivo): reduced; severity of atherosclerotic lesions / anti-atherogenic effect (abdominal aorta thickness, Sudan IV staining score 1 to 5) [4]: capable of reducing the severity of the atherosclerotic lesions; MEAN DAILY FOOD CONSUMPTION (g) PER ANIMAL After 15 days ([2]; g 1/100 g diet): 17.1 ± 0.35 g; MEAN DAILY FOOD CONSUMPTION (g) PER ANIMAL After 15 days [2, 6]: 17.1 g; MEAN DAILY FOOD CONSUMPTION (g) PER ANIMAL After 15 days ([2]; g 2/100 g diet): 15.1 ± 0.46 g; MEAN DAILY FOOD CONSUMPTION (g) PER ANIMAL After 15 days [2, 7]: 15.1 g; MEAN DAILY FOOD CONSUMPTION (g) PER ANIMAL Before treatment ([2]; g 1/100 g diet): 19.2 ± 0.65 g; MEAN DAILY FOOD CONSUMPTION (g) PER ANIMAL Before treatment [2, 6]: 19.2 g; MEAN DAILY FOOD CONSUMPTION (g) PER ANIMAL Before treatment ([2]; g 2/100 g diet): 18.8 ± 0.44 g; MEAN DAILY FOOD CONSUMPTION (g) PER ANIMAL Before treatment [2, 7]: 18.8 g; body weight gain (in words) [2, 5]: reduced; change in daily food consumption (in words) [2, 5]: substantial reduction; Epididimal fat AFTER 15 DAY-TREATMENT ([2]; g 1/100 g diet): 3.91 ± 0.36 g; Final body weight increase (g) AFTER 15 DAY-TREATMENT ([2]; g 1/100 g diet): 46.6 ± 4.1 g; SERUM Triglycerides AFTER 15 DAY-TREATMENT ([2]; g 1/100 g diet): 76.84 ± 6.9 mg/100 ml; Epididimal fat AFTER 15 DAY-TREATMENT ([2]; g 2/100 g diet): 3.32 ± 0.39 g; Final body weight increase (g) AFTER 15 DAY-TREATMENT ([2]; g 2/100 g diet): 38.9 ± 3.8 g; SERUM Triglycerides AFTER 15 DAY-TREATMENT ([2]; g 2/100 g diet): 73.66 ± 7.1 mg/100 ml; EXPERIMENTALLY-INDUCED HYPERCHOLESTEROLEMIA, TOTAL CHOLESTEROL ([3]; g 1/100 g diet): 196.6 ± 9.6 mg/dL; EXPERIMENTALLY-INDUCED HYPERCHOLESTEROLEMIA, TOTAL CHOLESTEROL ([3]; g 2/100 g diet): 180.5 ± 8.1 mg/dL; total cholesterol values (in words) [3]: fair degree of lowering
